# Reference: article PMC7679387, “VZHE-039, a novel antisickling agent that prevents erythrocyte sickling under both hypoxic and anoxic conditions” (Scientific Reports, 2020)
# What was measured:
# [1] = test system: Caco-2 cell monolayers; test: Caco-2 bi-directional permeability; assay type: in vitro ADME, human; details: Caco-2 monolayers
# Method: (§1) Toxicity concerns remain an important issue in the use of aromatic aldehydes in treating a chronic disease, such as SCD, especially as it involves modification of a large amount of in vivo present Hb. […] We evaluated key metrics such as in vitro RBC partitioning and ADME/safety profiles, in order to glean important safety insights. […] We also assessed VZHE-039 at 10 μM for its bi-directional cell permeability using Caco-2 cell monolayers[53],[54].
# (§2) Human epithelial colorectal adenocarcinoma (Caco-2) cells (HTB-37) were cultured in T75 flasks using complete Dulbecco’s Modified Eagles Medium (DMEM) containing 10% fetal bovine serum (FBS), 1% glutamine, 1% penicillin and 1% streptomycin, at 37 °C in a 5% CO2 atmosphere. Cells were passaged at 80–90% confluency using 0.05% trypsin–EDTA and the medium was changed every other day. Following this, the cells were trypsinized, suspended in medium and applied to a Millipore 96-well plate where they were cultured as monolayers at a density of 25,000 cells/well. The cells were incubated in a 37 °C/5% CO2 incubator to allow cell attachment and proliferation. Media was changed every 2–3 days for 21 days when cells reached 100% confluency. For Apical → Basolateral (A → B) permeability, 10 μM VZHE-039 was added to the apical (A) side and the amount of permeation determined on the basolateral (B) side; for Basolateral → Apical (B → A) permeability, 10 μM VZHE-039 was added to the B-side and the amount of permeation was determined on the A side. The A-side buffer contained 100 μM lucifer yellow dye, in Transport Buffer (1.98 g/L glucose in 10 mM HEPES, 1 × Hank’s Balanced Salt Solution) pH 7.4, and the B-side buffer used was the Transport Buffer at pH 7.4. Caco-2 cells were incubated with 10 μM VZHE0-39 in these buffers for 2 h. Ranitidine (low permeability), Warfarin (high permeability) and Talinolol (P-gp efflux control) were used as controls. […] Following centrifugation, the supernatant for donor and receiver side samples was analyzed by LC–MS/MS to determine peak area ratios.
# (§3) The efflux ratio (Re) was calculated as: Re=PappB→A/PappA→B
# [2] = Caco-2 bi-directional permeability; assay type: in vitro ADME, human; details: human, Caco-2, pH 7.4; read-out: Efflux ratio (Re)
# Method: as §1, §2, §3
compound,measurement,setting,value
"O=Cc1c(O)cccc1OCc1cccc(CO)n1 [VZHE-039, 2-((6-(Hydroxymethyl)pyridin-2-yl)methoxy)-6-hydroxybenzaldehyde]",Permeability (in words),[1]; 10 μM,high in vitro GI permeability
same,Efflux transporter (P-gp) substrate (in words),[1],not an efflux transporter (P-gp) substrate
same,"efflux ratio at 2 h, 10 µM",[2],0.85
